US20060223837A1 (priority 2005, published 2006)
pKi: −log10 of the molar value.

What was measured:
[1] = system: dextran sulfate induced colitis; conditions: animal model; cited from earlier work
[2] = system: CFA-induced mechanical hyperalgesia; conditions: literature; cited from earlier work
[3] = system: neuropathic pain; conditions: chronic constriction injury rodent neuropathic pain model; cited from earlier work
[4] = biological target: T1, human VR1 (Homo sapiens, UniProt Q8NER1); experiment: Human VR1 functional assay (FLIPR intracellular Ca2+); assay type: cell-based; conditions: inhibition of capsaicin response
T1 construct: expressed in transfected cells; host or cells: HEK293
T1 sequence (Q8NER1 whole entry): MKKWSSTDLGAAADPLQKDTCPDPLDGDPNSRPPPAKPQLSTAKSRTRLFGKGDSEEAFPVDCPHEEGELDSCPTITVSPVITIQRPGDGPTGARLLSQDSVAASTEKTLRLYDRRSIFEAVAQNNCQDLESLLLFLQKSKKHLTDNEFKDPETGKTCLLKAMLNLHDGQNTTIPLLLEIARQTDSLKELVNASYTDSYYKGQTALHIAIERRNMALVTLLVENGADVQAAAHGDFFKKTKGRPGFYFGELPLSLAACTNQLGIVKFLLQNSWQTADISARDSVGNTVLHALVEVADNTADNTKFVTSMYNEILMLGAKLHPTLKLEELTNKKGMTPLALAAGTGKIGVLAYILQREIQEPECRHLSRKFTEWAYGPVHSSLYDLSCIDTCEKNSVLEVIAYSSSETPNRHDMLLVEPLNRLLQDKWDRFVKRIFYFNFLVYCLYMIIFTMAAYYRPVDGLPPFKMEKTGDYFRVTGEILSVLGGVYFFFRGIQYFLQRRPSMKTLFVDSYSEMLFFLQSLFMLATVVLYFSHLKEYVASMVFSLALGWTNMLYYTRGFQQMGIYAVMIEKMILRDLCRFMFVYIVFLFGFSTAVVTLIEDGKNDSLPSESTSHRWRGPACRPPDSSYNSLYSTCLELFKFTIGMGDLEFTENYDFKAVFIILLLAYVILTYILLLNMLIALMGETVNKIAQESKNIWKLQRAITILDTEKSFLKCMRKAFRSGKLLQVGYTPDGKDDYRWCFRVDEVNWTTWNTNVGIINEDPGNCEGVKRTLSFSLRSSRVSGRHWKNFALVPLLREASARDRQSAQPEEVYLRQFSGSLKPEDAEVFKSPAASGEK
Procedure, shortened: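 HEK293 cells expressing human VR1, loaded with Calcium 3 dye, were exposed to test compounds for 5 min while FLIPR recorded intracellular Ca2+, then challenged with capsaicin at ~80% maximal response ([…]). EC50 or IC50 came from dose-response curves on quadruplicate-well means.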

[5] = biological target: T1, human VR1; experiment: Human VR1 [3H]RTX binding assay; conditions: [3H]RTX binding, HEK293 membranes
Procedure, shortened: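 Membranes from human VR1-transfected HEK293 cells (~120 μg protein/ml) incubated with [3H]RTX in HEPES pH 7.4 with 0.25 mg/mL BSA, 37 C, 60 min. Bound counts by scintillation after α-acid glycoprotein and centrifugation; nonspecific defined with 200 nM unlabelled RTX. Ki from duplicate means.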

[6] = system: chronic arthritis; conditions: tail vein model; cited from earlier work
[7] = system: cough; conditions: capsaicin and citric acid induced cough, guinea pig; cited from earlier work

Nc1ccc(O)c(C(=O)O)c1 [5-ASA]
protection against colitis [1]: protects against dextran sulfate induced colitis

CC(C)(C)c1ccc(NC(=O)N2CCN(c3ncccc3Cl)CC2)cc1 [BCTC]
effect on hyperalgesia [2]: reduced hyperalgesia
effect on mechanical hyperalgesia and tactile allodynia [3]: reduced mechanical hyperalgesia and tactile allodynia

O=C(CCc1ccc(C(F)(F)F)cc1)Nc1ccc(-n2cnc(Cl)c2Cl)cc1 [Cpd 263]
inhibition at 5 µM ([4]; 5 μM, read-out: h % I (5 μM)): 67%
pKi [5]: 7.07

Cc1cn(-c2ccc(NC(=O)/C=C/c3ccc(C(F)(F)F)cn3)cc2C(F)(F)F)cn1 [Cpd 277]
inhibition at 1 µM ([4]; 1 μM, read-out: h % I (1 μM)): 38%
pKi [5]: 6.85

O=C(O)Cc1ccccc1Nc1c(Cl)cccc1Cl [diclofenac]
effect on hyperalgesia [2]: reversed the hyperalgesic effect of zymosan
pain relief [6]: partially effective

COc1ccc2c(c1)c(CC(=O)O)c(C)n2C(=O)c1ccc(Cl)cc1 [indomethacin]
pain relief [6]: partially effective

C=C(C)[C@]12C[C@@H](C)[C@@]34O[C@](Cc5ccccc5)(O[C@@H]1[C@@H]3C=C(COC(=O)Cc1cc(I)c(O)c(OC)c1)C[C@]1(O)C(=O)C(C)=C[C@@H]41)O2 [iodo-resiniferatoxin]
antitussive action [7]: antitussive action

CN1CC[C@]23c4c5ccc(O)c4O[C@H]2[C@@H](O)C=C[C@H]3[C@H]1C5 [morphine]
pain relief [6]: fully relieved pain

COc1cccc(C2(O)CCCCC2CN(C)C)c1 (stereo not shown) [tramadol]
pain relief [6]: fully relieved pain
